Assays:
[1] = tested on: A549 (NSCLC) cells; test: Anti-proliferative activity, Cell-Titre luminescent viability assay; assay type: cell-based; details: Homo sapiens, 72 h exposure, Cell-Titre luminescent reagent
Protocol: (§1) The ability of compounds of the disclosure to inhibit the proliferation of cancer cells representative of non-small cell lung cancer and ovarian cancer (Table 1), and pancreatic cancer, colorectal cancer and prostate cancer (Table 2) was assessed. Briefly, a predetermined number of cells as calculated from cell growth assays for each of the cell lines employed were seeded into their respective culture medium (using ATCC culture parameters—http://www.atcc.org) and cultured for 24 h at 37° C. and 5% CO2 in 96-well culture plates. Once attached, each cell line was then exposed to various concentrations of each respective analogue (100, 30, 10, 3, 1 and 0.3 µM or 30, 10, 3, 1, 0.3 and 0.1 μM), cultured for a further 72 h and exposed to Cell-Titre luminescent reagent (100 μL/well) for a further 30 min. Luminescence was captured using an EnVision multilabel reader and the data for each analogue concentration compared against no treatment control. Cell viability was normalised to control (vehicle alone) and dose response curves, and half maximal effective concentration (EC50) values were determined using Graph Pad Prism 6 (nonlinear regression sigmoidal dose-response variable slope).

[2] = tested on: A2780 (ovarian) cells; test: as above; assay type: cell-based; details: Homo sapiens, 72 h exposure, Cell-Titre luminescent reagent
Protocol: as §1

Row | Compound | IC50 [1] [µM] | IC50 [2] [µM]
1 | CCc1ccc(NC(=O)c2ccn(S(=O)(=O)c3ccc4[nH]ccc4c3)c2)cc1 [Compound 40, 1-((1H-indol-5-yl)sulfonyl)-N-(4-ethylphenyl)-1H-pyrrole-3-carboxamide] | 11.3 | 11
2 | CCc1ccccc1NC(=O)c1ccn(S(=O)(=O)c2ccc3[nH]ccc3c2)c1 [Compound 42, 1-((1H-indol-5-yl)sulfonyl)-N-(2-ethylphenyl)-1H-pyrrole-3-carboxamide] | 9.8 | 13.4
3 | Cc1cccc(C)c1NC(=O)c1ccn(S(=O)(=O)c2ccc3[nH]ccc3c2)c1 [Compound 51, 1-((1H-indol-5-yl)sulfonyl)-N-(2,6-dimethylphenyl)-1H-pyrrole-3-carboxamide] | 17.9 | 7.2
4 | Cc1cc(C)cc(NC(=O)c2ccn(S(=O)(=O)c3ccc4[nH]ccc4c3)c2)c1 [Compound 52, 1-((1H-indol-5-yl)sulfonyl)-N-(3,5-dimethylphenyl)-1H-pyrrole-3-carboxamide] | 10.7 | 11.8
5 | O=C(Nc1c(F)cccc1F)c1ccn(S(=O)(=O)c2ccc3[nH]ccc3c2)c1 [Compound 53, 1-((1H-indol-5-yl)sulfonyl)-N-(2,6-difluorophenyl)-1H-pyrrole-3-carboxamide] | > 30 | > 30
6 | O=C(Nc1cc(F)cc(F)c1)c1ccn(S(=O)(=O)c2ccc3[nH]ccc3c2)c1 [Compound 54, 1-((1H-indol-5-yl)sulfonyl)-N-(3,5-difluorophenyl)-1H-pyrrole-3-carboxamide] | 13.1 | 8.2
7 | Cc1cccc(F)c1NC(=O)c1ccn(S(=O)(=O)c2ccc3[nH]ccc3c2)c1 [Compound 55, 1-((1H-indol-5-yl)sulfonyl)-N-(2-fluoro-6-methylphenyl)-1H-pyrrole-3-carboxamide] | > 30 | > 30
8 | Cc1cc(F)cc(NC(=O)c2ccn(S(=O)(=O)c3ccc4[nH]ccc4c3)c2)c1 [Compound 56, 1-((1H-indol-5-yl)sulfonyl)-N-(3-fluoro-5-methylphenyl)-1H-pyrrole-3-carboxamide] | 17.9 | 19.5
9 | CCc1ccccc1NC(=O)C1CCN(S(=O)(=O)c2ccc3[nH]ccc3c2)CC1 [Compound 61, 1-((1H-indol-5-yl)sulfonyl)-N-(2-ethylphenyl)piperidine-4-carboxamide] | > 30 | > 30
10 | Cc1ccccc1NC(=O)C1CCN(S(=O)(=O)c2ccc3[nH]ccc3c2)CC1 [Compound 62, 1-((1H-indol-5-yl)sulfonyl)-N-(o-tolyl)piperidine-4-carboxamide] | > 30 | > 30
11 | O=C(Nc1ccc(Cl)cc1)c1ccn(S(=O)(=O)c2ccc3[nH]ccc3c2)c1 [Compound 66, 1-((1H-indol-5-yl)sulfonyl)-N-(4-chlorophenyl)-1H-pyrrole-3-carboxamide] | 15.9 | 13.6
12 | O=C(Nc1ccc(F)c(Cl)c1)c1ccn(S(=O)(=O)c2ccc3[nH]ccc3c2)c1 [Compound 70, 1-((1H-indol-5-yl)sulfonyl)-N-(3-chloro-4-fluorophenyl)-1H-pyrrole-3-carboxamide] | 13.8 | 12.2
13 | O=C(Nc1ccc(F)cn1)c1ccn(S(=O)(=O)c2ccc3[nH]ccc3c2)c1 [Compound 72] | 3.45 | > 30
14 | O=C(Nc1ccc(Cl)cn1)c1ccn(S(=O)(=O)c2ccc3[nH]ccc3c2)c1 [Compound 73] | 2.62 | 11.2
15 | O=C(Nc1ccc(F)nc1)c1ccn(S(=O)(=O)c2ccc3[nH]ccc3c2)c1 [Compound 74, 1-((1H-indol-5-yl)sulfonyl)-N-(6-fluoropyridin-3-yl)-1H-pyrrole-3-carboxamide] | > 30 | 3.9
16 | O=C(Nc1ccc(Cl)nc1)c1ccn(S(=O)(=O)c2ccc3[nH]ccc3c2)c1 [Compound 75, 1-((1H-indol-5-yl)sulfonyl)-N-(6-chloropyridin-3-yl)-1H-pyrrole-3-carboxamide] | 18.6 | 26.7
17 | O=C(Nc1ccc(F)cc1)c1ccn(S(=O)(=O)c2ccc3[nH]ccc3c2)n1 [Compound 76, 1-((1H-indol-5-yl)sulfonyl)-N-(4-fluorophenyl)-1H-pyrazole-3-carboxamide] | > 30 | 23.8
18 | O=C(Nc1ccc(Cl)cc1)c1ccn(S(=O)(=O)c2ccc3[nH]ccc3c2)n1 [Compound 77, 1-((1H-indol-5-yl)sulfonyl)-N-(4-chlorophenyl)-1H-pyrazole-3-carboxamide] | 19 | > 30

Row | Compound | IC50 [1] [µM] | IC50 [2] [µM]
19 | N#Cc1ccc(NC(=O)c2ccn(S(=O)(=O)c3ccc4[nH]ccc4c3)n2)cc1 [Compound 79, 1-((1H-indol-5-yl)sulfonyl)-N-(4-cyanophenyl)-1H-pyrazole-3-carboxamide] | 6.72 | > 30
20 | O=C(Nc1ccc(F)c(F)c1)c1ccn(S(=O)(=O)c2ccc3[nH]ccc3c2)n1 [Compound 80, 1-((1H-indol-5-yl)sulfonyl)-N-(3,4-difluorophenyl)-1H-pyrazole-3-carboxamide] | 4.84 | 13.2
21 | O=C(Nc1ccc(Cl)c(F)c1)c1ccn(S(=O)(=O)c2ccc3[nH]ccc3c2)n1 [Compound 81, 1-((1H-indol-5-yl)sulfonyl)-N-(4-chloro-3-fluorophenyl)-1H-pyrazole-3-carboxamide] | > 30 | 9.33
22 | O=C(Nc1ccc(F)c(Cl)c1)c1ccn(S(=O)(=O)c2ccc3[nH]ccc3c2)n1 [Compound 82, 1-((1H-indol-5-yl)sulfonyl)-N-(3-chloro-4-fluorophenyl)-1H-pyrazole-3-carboxamide] | 16.1 | 10.5
23 | O=C(Nc1ccc(F)cn1)c1ccn(S(=O)(=O)c2ccc3[nH]ccc3c2)n1 [Compound 84, 1-((1H-indol-5-yl)sulfonyl)-N-(5-fluoropyridin-2-yl)-1H-pyrazole-3-carboxamide] | > 30 | > 30
24 | O=C(Nc1ccc(Cl)cn1)c1ccn(S(=O)(=O)c2ccc3[nH]ccc3c2)n1 [Compound 85] | 11.1 | 21.3
25 | O=C(Nc1ccc(F)nc1)c1ccn(S(=O)(=O)c2ccc3[nH]ccc3c2)n1 [Compound 86, 1-((1H-indol-5-yl)sulfonyl)-N-(6-fluoropyridin-3-yl)-1H-pyrazole-3-carboxamide] | > 30 | > 30
26 | O=C(Nc1ccc(Cl)nc1)c1ccn(S(=O)(=O)c2ccc3[nH]ccc3c2)n1 [Compound 87, 1-((1H-indol-5-yl)sulfonyl)-N-(6-chloropyridin-3-yl)-1H-pyrazole-3-carboxamide] | > 30 | ≥ 30
27 | CCC(C)c1ccc(CCNC(=O)c2ccn(S(=O)(=O)c3ccc(C(C)(C)C)cc3)c2)cc1 (stereo not drawn) [Compound 88, N-(4-(sec-butyl)phenethyl)-1-((4-(tert-butyl)phenyl)sulfonyl)-1H-pyrrole-3-carboxamide] | > 30 | > 30
28 | CC(C)(C)c1ccc(S(=O)(=O)n2ccc(C(=O)NCCc3ccc(C(F)(F)F)cc3)c2)cc1 [Compound 90, 1-((4-(tert-butyl)phenyl)sulfonyl)-N-(4-(trifluoromethyl)phenethyl)-1H-pyrrole-3-carboxamide] | > 30 | > 30
29 | CCC(C)c1ccc(NC(=O)c2ccn(S(=O)(=O)c3ccc(C(C)(C)C)cc3)c2)cc1 (stereo not drawn) [Compound 91, N-(4-(sec-butyl)phenyl)-1-((4-(tert-butyl)phenyl)sulfonyl)-1H-pyrrole-3-carboxamide] | > 30 | > 30
30 | CCC(C)c1ccc(NC(=O)c2ccn(S(=O)(=O)c3ccc4[nH]ccc4c3)c2)cc1F (stereo not drawn) [Compound 94, 1-((1H-indol-5-yl)sulfonyl)-N-(4-(sec-butyl)-3-fluorophenyl)-1H-pyrrole-3-carboxamide] | 7.92 | 4.32
31 | CC(C)c1ccc(NC(=O)c2ccn(S(=O)(=O)c3ccc4[nH]ccc4c3)c2)cc1F [Compound 95, 1-((1H-indol-5-yl)sulfonyl)-N-(3-fluoro-4-isopropylphenyl)-1H-pyrrole-3-carboxamide] | 7.84 | 5.28
32 | CCCc1ccc(NC(=O)c2ccn(S(=O)(=O)c3ccc4[nH]ccc4c3)c2)cc1F [Compound 97, 1-((1H-indol-5-yl)sulfonyl)-N-(3-fluoro-4-propylphenyl)-1H-pyrrole-3-carboxamide] | 10.7 | 8.31
33 | CC(C)Cc1ccc(NC(=O)c2ccn(S(=O)(=O)c3ccc4[nH]ccc4c3)c2)cc1 [Compound 98, 1-((1H-indol-5-yl)sulfonyl)-N-(4-isobutylphenyl)-1H-pyrrole-3-carboxamide] | 13.2 | 5.07
34 | CC(C)Cc1ccc(NC(=O)c2ccn(S(=O)(=O)c3ccc4[nH]ccc4c3)c2)cc1F [Compound 99, 1-((1H-indol-5-yl)sulfonyl)-N-(3-fluoro-4-isobutylphenyl)-1H-pyrrole-3-carboxamide] | 7.47 | 4.9
35 | CC(C)(C)c1ccc(NC(=O)c2ccn(S(=O)(=O)c3ccc4[nH]ccc4c3)c2)cc1F [Compound 101, 1-((1H-indol-5-yl)sulfonyl)-N-(4-(tert-butyl)-3-fluorophenyl)-1H-pyrrole-3-carboxamide] | 5.17 | 4.53
36 | COc1ccc(NC(=O)c2ccn(S(=O)(=O)c3ccc4[nH]ccc4c3)c2)cc1 [Compound 102, 1-((1H-indol-5-yl)sulfonyl)-N-(4-methoxyphenyl)-1H-pyrrole-3-carboxamide] | 16.1 | 13.4

From patent US12528792B2, “Sulfonamide compounds and the use thereof in the treatment of cancer” (TROBIO THERAPEUTICS PTY LTD, priority 2019, dated 2026)
